Reference: EP0257285A2, “Method and compositions for reducing the intraocular pressure of mammals” (Whitby Research Incorporated, priority 1986, dated 1988)
Where two headings read alike, the source gives them in different places.

Assays:
rabbits = settings: cited from earlier work
Cebus apella monkeys = experiment: Intraocular pressure (IOP) measurement after topical unilateral application to the eye of monkeys; type: in vivo; settings: female Cebus apella monkeys, 50ul aliquots, doses 0.165, 0.5 and 1.65 mg, IOP at 0.5, 1, 2, 3, 4 and 5 hours post drug, compared to vehicle alone
Experimental: Male, albino New Zealand rabbits, and female Cebus apella monkeys are used in the example. Rabbits are used primarily to screen for undue ocular toxicity of 2-(N-propyl-N-2-phenylethylamino)-5-hydroxytetralin (active compound) before conducting experiments in monkeys.
A racemic mixture of 2-(N-propyl-N-2-phenylethylamino)-5-hydroxytetralin (active compound) is dissolved in distilled water (vehicle or carrier) on the day of the experiment. Solutions are administered in a masked manner, that is, solutions are prepared by a person that was neither involved in drug administration nor measurement of intraocular pressure (IOP) and pupil diameter (PD). The solution of the active compound is applied unilaterally with the contralateral (fellow) eye receiving vehicle only. Five monkeys are treated bilaterally with vehicle; one to two vehicle-treated monkeys are included each time a different dose of the active compound is used. Doses of active compound tested are: 0.165, 0.5 and 1.65 mg.
After taking two baseline (0 time) measurements, aliquots (50ul) of the solution of active compound and/or vehicle, only, are administered topically. Subsequently, IOP measurements are made at 0.5, 1, 2, 3, 4 and 5 hours post drug.

monkeys = settings: Curr. Eye Res. 2, 281-288; cited from earlier work
[1] = rabbits, Curr. Eye Res. 2, 281-288 and 3, 307-314

Compound	intraocular pressure of rabbits (rabbits; rabbit, in vivo)	intraocular pressure (Cebus apella monkeys)	intraocular pressure of monkeys (monkeys)	intraocular pressure of rabbits (rabbits; [1])
CC(C)C[C@H]1C(=O)N2CCC[C@H]2[C@]2(O)O[C@](NC(=O)[C@@H]3C=C4c5cccc6[nH]c(Br)c(c56)C[C@H]4N(C)C3)(C(C)C)C(=O)N12 [Bromocriptine]	lower the intraocular pressure of rabbits			
CCCN(CCc1ccccc1)C1CCc2c(O)cccc2C1 (racemic) [active compound, 2-(N-propyl-N-2-phenylethylamino)-5-hydroxytetralin]		effectively lower the intraocular pressure		
CCCN1C[C@H](CSC)C[C@@H]2c3cccc4[nH]cc(c34)C[C@H]21 [pergolide]			lowered the intraocular pressure of monkeys	lower the intraocular pressure of rabbits
CN1C[C@H](CC#N)C[C@@H]2c3cccc4[nH]c(Cl)c(c34)C[C@H]21 [lergotrile]			lowered the intraocular pressure of monkeys	lower the intraocular pressure of rabbits
